Assay results as given in PubChem BioAssay (NCI).
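All cell lines were grown in 96-well plates and treated with compound for 48 hours. The concentration for full growth arrest is given as TGI.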

Experiments:
Test in all cases: NCI tumour cell line growth inhibition, 48 h
[1] = tested on: MDA-MB-231 breast
[2] = tested on: UACC-257 melanoma
[3] = tested on: RPMI-8226 leukemia
[4] = tested on: DU-145 prostate
[5] = tested on: NCI/ADR-RES ovarian
[6] = tested on: BT-549 breast
[7] = tested on: NCI-H226 lung
[8] = tested on: SK-MEL-5 melanoma
[9] = tested on: HOP-62 NSCLC
[10] = tested on: HL-60(TB) leukemia
[11] = tested on: T-47D breast
[12] = tested on: SF-295 CNS
[13] = tested on: SF-539 CNS
[14] = tested on: TK-10 renal
[15] = tested on: MCF7 breast
[16] = tested on: SW-620 colon
[17] = tested on: SK-MEL-2 melanoma
[18] = tested on: HCT-116 colon
[19] = tested on: ACHN renal
[20] = tested on: MALME-3M melanoma
[21] = tested on: K-562 leukemia
[22] = tested on: A549 NSCLC
[23] = tested on: CAKI-1 renal
[24] = tested on: MDA-N
[25] = tested on: IGROV1 ovarian
[26] = tested on: SR leukemia
[27] = tested on: SNB-19 CNS
[28] = tested on: SF-268 CNS
[29] = tested on: HCC-2998 colon
[30] = tested on: NCI-H522 lung
[31] = tested on: EKVX NSCLC
[32] = tested on: HS 578T breast
[33] = tested on: 786-0 renal
[34] = tested on: NCI-H23 lung
[35] = tested on: OVCAR-8 ovarian
[36] = tested on: HT29 colon
[37] = tested on: KM12 colon
[38] = tested on: COLO 205 colon
[39] = tested on: SN12C renal
[40] = tested on: MDA-MB-435
[41] = tested on: LOX IMVI melanoma
[42] = tested on: HCT-15 colon
[43] = tested on: UO-31 renal
[44] = tested on: CCRF-CEM leukemia
[45] = tested on: MOLT-4 leukemia
[46] = tested on: OVCAR-4 ovarian
[47] = tested on: NCI-H460 lung
[48] = tested on: SK-MEL-28 melanoma
[49] = tested on: M14 melanoma
[50] = tested on: UACC-62 melanoma
[51] = tested on: U251 CNS
[52] = tested on: OVCAR-3 ovarian
[53] = tested on: SNB-75 CNS
[54] = tested on: PC-3 prostate
[55] = tested on: RXF 393 renal
[56] = tested on: SK-OV-3 ovarian
[57] = tested on: A498 renal
[58] = tested on: OVCAR-5 ovarian
[59] = tested on: HOP-92 NSCLC

## CO[C@H]1SC[C@H](OC(C)=O)[C@H](OC(C)=O)[C@H]1OC(C)=O
[1]
  TGI: > 100 µM
[2]
  TGI: > 100 µM
[3]
  TGI: > 100 µM
[4]
  TGI: > 100 µM
[5]
  TGI: > 100 µM
[6]
  TGI: > 100 µM
[7]
  TGI: > 100 µM
[8]
  TGI: > 100 µM
[9]
  TGI: > 100 µM
[10]
  TGI: > 100 µM
[11]
  TGI: > 100 µM
[12]
  TGI: > 100 µM
[13]
  TGI: > 100 µM
[14]
  TGI: > 100 µM
[15]
  TGI: > 100 µM
[16]
  TGI: > 100 µM
[17]
  TGI: > 100 µM
[18]
  TGI: > 100 µM
[19]
  TGI: > 100 µM
[20]
  TGI: > 100 µM
[21]
  TGI: > 100 µM
[22]
  TGI: > 100 µM
[23]
  TGI: > 100 µM
[24]
  TGI: > 100 µM
[25]
  TGI: > 100 µM
[26]
  TGI: > 100 µM
[27]
  TGI: > 100 µM
[28]
  TGI: > 100 µM
[29]
  TGI: > 100 µM
[30]
  TGI: > 100 µM
[31]
  TGI: > 100 µM
[32]
  TGI: > 100 µM
[33]
  TGI: > 100 µM
[34]
  TGI: > 100 µM
[35]
  TGI: > 100 µM
[36]
  TGI: > 100 µM
[37]
  TGI: > 100 µM
[38]
  TGI: > 100 µM
[39]
  TGI: > 100 µM
[40]
  TGI: > 100 µM
[41]
  TGI: > 100 µM
[42]
  TGI: > 100 µM
[43]
  TGI: > 100 µM
[44]
  TGI: > 100 µM
[45]
  TGI: > 100 µM
[46]
  TGI: > 100 µM
[47]
  TGI: > 100 µM
[48]
  TGI: > 100 µM
[49]
  TGI: > 100 µM
[50]
  TGI: > 100 µM
[51]
  TGI: > 100 µM
[52]
  TGI: > 100 µM

## CCN(CC)C(=S)SC
[1]
  TGI: > 100 µM
[53]
  TGI: > 100 µM
[54]
  TGI: > 100 µM
[2]
  TGI: > 100 µM
[3]
  TGI: > 100 µM
[4]
  TGI: > 100 µM
[5]
  TGI: > 100 µM
[6]
  TGI: > 100 µM
[7]
  TGI: > 100 µM
[55]
  TGI: > 100 µM
[8]
  TGI: > 100 µM
[9]
  TGI: > 100 µM
[10]
  TGI: > 100 µM
[11]
  TGI: > 100 µM
[56]
  TGI: > 100 µM
[12]
  TGI: > 100 µM
[13]
  TGI: > 100 µM
[14]
  TGI: > 100 µM
[15]
  TGI: > 100 µM
[16]
  TGI: > 100 µM
[17]
  TGI: > 100 µM
[18]
  TGI: > 100 µM
[19]
  TGI: > 100 µM
[20]
  TGI: > 100 µM
[21]
  TGI: > 100 µM
[22]
  TGI: > 100 µM
[24]
  TGI: > 100 µM
[25]
  TGI: > 100 µM
[27]
  TGI: > 100 µM
[28]
  TGI: > 100 µM
[29]
  TGI: > 100 µM
[30]
  TGI: > 100 µM
[31]
  TGI: > 100 µM
[32]
  TGI: > 100 µM
[57]
  TGI: > 100 µM
[33]
  TGI: > 100 µM
[34]
  TGI: > 100 µM
[35]
  TGI: > 100 µM
[36]
  TGI: > 100 µM
[38]
  TGI: > 100 µM
[39]
  TGI: > 100 µM
[41]
  TGI: > 100 µM
[42]
  TGI: > 100 µM
[44]
  TGI: > 100 µM
[58]
  TGI: > 100 µM
[45]
  TGI: > 100 µM
[59]
  TGI: > 100 µM
[47]
  TGI: > 100 µM
[48]
  TGI: > 100 µM
[49]
  TGI: > 100 µM
[50]
  TGI: > 100 µM
[51]
  TGI: > 100 µM
[52]
  TGI: > 100 µM

## COC(=O)C1(CCCCCBr)CCCCCCCCCCC1=O (stereo not drawn)
[1]
  TGI: 84.6 µM
[54]
  TGI: > 100 µM
[2]
  TGI: 70.2 µM
[4]
  TGI: > 100 µM
[5]
  TGI: > 100 µM
[7]
  TGI: 66.6 µM
[55]
  TGI: 51.9 µM
[8]
  TGI: 35.1 µM
[9]
  TGI: > 100 µM
[10]
  TGI: 49.9 µM
[11]
  TGI: > 100 µM
[56]
  TGI: > 100 µM
[12]
  TGI: > 100 µM
[13]
  TGI: > 100 µM
[14]
  TGI: > 100 µM
[15]
  TGI: 42.2 µM
[16]
  TGI: > 100 µM
[17]
  TGI: 70.1 µM
[18]
  TGI: > 100 µM
[19]
  TGI: > 100 µM
[20]
  TGI: 47.6 µM
[21]
  TGI: > 100 µM
[22]
  TGI: > 100 µM
[23]
  TGI: 53.9 µM
[24]
  TGI: > 100 µM
[25]
  TGI: 87.2 µM
[26]
  TGI: 55.7 µM
[27]
  TGI: > 100 µM
[28]
  TGI: > 100 µM
[29]
  TGI: > 100 µM
[30]
  TGI: 47.5 µM
[31]
  TGI: > 100 µM
[32]
  TGI: > 100 µM
[57]
  TGI: 64.7 µM
[33]
  TGI: > 100 µM
[34]
  TGI: > 100 µM
[35]
  TGI: > 100 µM
[36]
  TGI: > 100 µM
[37]
  TGI: > 100 µM
[38]
  TGI: > 100 µM
[39]
  TGI: > 100 µM
[40]
  TGI: 87.5 µM
[41]
  TGI: 63.3 µM
[42]
  TGI: > 100 µM
[43]
  TGI: 31.8 µM
[44]
  TGI: 45 µM
[58]
  TGI: > 100 µM
[45]
  TGI: 35.6 µM
[46]
  TGI: > 100 µM
[59]
  TGI: > 100 µM
[47]
  TGI: > 100 µM
[48]
  TGI: 92.2 µM
[49]
  TGI: > 100 µM
[50]
  TGI: > 100 µM
[51]
  TGI: > 100 µM
[52]
  TGI: > 100 µM

## COC(=O)c1nc(Cl)nc(Cl)c1Cl
[1]
  TGI: 42.9 µM
[53]
  TGI: > 100 µM
[54]
  TGI: 34.9 µM
[3]
  TGI: 63.6 µM
[4]
  TGI: > 100 µM
[5]
  TGI: > 100 µM
[7]
  TGI: 64.4 µM
[55]
  TGI: 28.2 µM
[8]
  TGI: 35.1 µM
[9]
  TGI: > 100 µM
[11]
  TGI: 54.2 µM
[56]
  TGI: > 100 µM
[12]
  TGI: > 100 µM
[13]
  TGI: 75.3 µM
[14]
  TGI: 47.8 µM
[15]
  TGI: 55.1 µM
[16]
  TGI: 38.5 µM
[18]
  TGI: 33.2 µM
[19]
  TGI: 27.7 µM
[20]
  TGI: 45.9 µM
[21]
  TGI: 31.9 µM
[22]
  TGI: > 100 µM
[23]
  TGI: 32.1 µM
[24]
  TGI: 76.8 µM
[25]
  TGI: 66 µM
[26]
  TGI: 58.7 µM
[27]
  TGI: > 100 µM
[28]
  TGI: > 100 µM
[29]
  TGI: 68.3 µM
[30]
  TGI: 36.5 µM
[32]
  TGI: 85 µM
[33]
  TGI: 33.1 µM
[34]
  TGI: > 100 µM
[35]
  TGI: 54.5 µM
[36]
  TGI: 50.2 µM
[37]
  TGI: 47.3 µM
[38]
  TGI: 36 µM
[39]
  TGI: 45.1 µM
[40]
  TGI: 29.3 µM
[41]
  TGI: 29.6 µM
[42]
  TGI: 46.9 µM
[43]
  TGI: 35.7 µM
[44]
  TGI: 27.7 µM
[58]
  TGI: 52.3 µM
[45]
  TGI: 32.9 µM
[46]
  TGI: 41 µM
[59]
  TGI: 42.9 µM
[47]
  TGI: > 100 µM
[48]
  TGI: 56.9 µM
[49]
  TGI: 38.3 µM
[51]
  TGI: > 100 µM
[52]
  TGI: 16.8 µM
